The results in this text go back to ChEMBL document CHEMBL3632495, “Discovery of 1,1'-Biphenyl-4-sulfonamides as a New Class of Potent and Selective Carbonic Anhydrase XIV Inhibitors” (J Med Chem, 2015).

The target of assay [1] is Carbonic anhydrase 9 (Homo sapiens, UniProt Q16790).
Description: Inhibition of human carbonic anhydrase-9 assessed as CO2 hydration activity by stopped-flow method
Assay [2] addresses Carbonic anhydrase 2 (Homo sapiens, UniProt P00918).
Description: Inhibition of human carbonic anhydrase-2 assessed as CO2 hydration activity by stopped-flow method
The target in assay [3] is Carbonic anhydrase 1 (Homo sapiens, UniProt P00915).
Description: Inhibition of human carbonic anhydrase-1 assessed as CO2 hydration activity by stopped-flow method
Assay [4] addresses Carbonic anhydrase 12 (Homo sapiens, UniProt O43570).
Description: Inhibition of human carbonic anhydrase-12 assessed as CO2 hydration activity by stopped-flow method

Chain of Carbonic anhydrase 1 (P00915 whole entry): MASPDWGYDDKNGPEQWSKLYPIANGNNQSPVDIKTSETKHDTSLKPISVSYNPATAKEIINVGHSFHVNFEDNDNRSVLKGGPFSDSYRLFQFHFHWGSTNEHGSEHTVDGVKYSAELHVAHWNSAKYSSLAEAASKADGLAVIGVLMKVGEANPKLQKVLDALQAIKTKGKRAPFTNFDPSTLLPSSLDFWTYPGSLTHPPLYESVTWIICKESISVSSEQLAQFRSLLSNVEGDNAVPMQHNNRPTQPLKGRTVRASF
Chain of Carbonic anhydrase 12 (O43570 whole entry): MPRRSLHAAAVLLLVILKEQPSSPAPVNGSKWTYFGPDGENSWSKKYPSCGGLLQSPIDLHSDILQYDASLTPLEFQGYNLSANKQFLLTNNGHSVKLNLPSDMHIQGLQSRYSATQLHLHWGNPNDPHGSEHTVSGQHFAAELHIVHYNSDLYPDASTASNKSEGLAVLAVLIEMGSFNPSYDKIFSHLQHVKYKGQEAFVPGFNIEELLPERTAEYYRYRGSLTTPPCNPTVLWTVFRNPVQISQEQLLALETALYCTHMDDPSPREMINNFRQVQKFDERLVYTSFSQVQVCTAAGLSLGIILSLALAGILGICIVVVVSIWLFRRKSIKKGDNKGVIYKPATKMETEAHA

With `COC(=O)c1ccc(-c2ccc(S(N)(=O)=O)cc2)cc1`, the Ki (as a rule, a dissociation constant, usually derived from enzyme kinetics or from competition with a known ligand) is 9.3 nM in assay [1], 9 nM in assay [2], 77 nM in assay [3] and 35.2 nM in assay [4].
Turning to `CC(C)(C)OC(=O)c1ccc(-c2ccc(S(N)(=O)=O)cc2)cc1`, the results for the Ki in assay [2], in assay [3] and in assay [4] were 42 nM, 78.8 nM and 44.9 nM, respectively.
`NS(=O)(=O)c1ccc(-c2ccc(C(=O)O)cc2)cc1`: the Ki in assay [1] worked out at 3.6 nM; in assay [2], 6.2 nM; in assay [3], 340 nM; in assay [4], 52.3 nM.
The like results for `NC(=O)c1ccc(-c2ccc(S(N)(=O)=O)cc2)cc1` were, in that order, 823 nM, 5.3 nM, 67.5 nM and 8.3 nM.
Take `NS(=O)(=O)c1ccc(-c2ccc(C(=O)NCCO)cc2)cc1`: the Ki in assay [2] was found to be 11.5 nM; in assay [3] it was 46.7 nM; in assay [4], 26.2 nM.
`NS(=O)(=O)c1ccc(-c2ccc([N+](=O)[O-])cc2)cc1`: the Ki in assay [1] is 9.6 nM; in assay [2], 11.6 nM; in assay [3], 62.2 nM; in assay [4], 7.4 nM.
As for `Nc1ccc(-c2ccc(S(N)(=O)=O)cc2)cc1`, the results for the Ki in assay [2], in assay [3] and in assay [4] were 9.1 nM, 78.5 nM and 7.7 nM, respectively.
The like results for `NS(=O)(=O)c1ccc(-c2ccc(C(=O)c3ccccc3)cc2)cc1` were, in that order, 4.3 nM, 1630 nM and 7.4 nM.
Regarding `NS(=O)(=O)c1ccc(-c2ccc(C(O)c3ccccc3)cc2)cc1` (stereo unspecified), the Ki in assay [1] came to 8.9 nM; in assay [2], 4.9 nM; in assay [3], 52.7 nM; in assay [4], 81.1 nM.
As for `NS(=O)(=O)c1ccc(-c2ccc(Cc3ccccc3)cc2)cc1`, the Ki in assay [1] is 519 nM; in assay [2], 454 nM; in assay [3], 75.3 nM; in assay [4], 77.2 nM.
The like results for `COC(=O)c1ccc(C(=O)c2ccc(-c3ccc(S(N)(=O)=O)cc3)cc2)cc1` were, in that order, 42.3 nM, 7.8 nM, 73.8 nM and 7.3 nM.
As for `COC(=O)c1ccc(C(O)c2ccc(-c3ccc(S(N)(=O)=O)cc3)cc2)cc1` (stereo unspecified), the Ki in assay [2] was determined as 6.6 nM; in assay [3], 6.3 nM; in assay [4] it was 6.7 nM.
`COC(=O)c1ccc(Cc2ccc(-c3ccc(S(N)(=O)=O)cc3)cc2)cc1`: the Ki came out at 76.7 nM in assay [1], 50.6 nM in assay [2], 122 nM in assay [3] and 237 nM in assay [4].
For `NS(=O)(=O)c1ccc(-c2ccc(C(=O)c3ccc(C(=O)O)cc3)cc2)cc1`, the Ki in assay [1] is 8.5 nM; in assay [2] it was 4.8 nM; in assay [3], 263 nM; in assay [4] it was 45.5 nM.
The like results for `NS(=O)(=O)c1ccc(-c2ccc(C(O)c3ccc(C(=O)O)cc3)cc2)cc1` (stereo unspecified) were, in that order, 450 nM, 814 nM, 72.5 nM and 93.9 nM.
Regarding `NS(=O)(=O)c1ccc(-c2ccc(Cc3ccc(C(=O)O)cc3)cc2)cc1`, the Ki in assay [1] was found to be 31.4 nM; in assay [2], 6.9 nM; in assay [3], 236 nM.
`NS(=O)(=O)c1ccc(-c2ccc(C(=O)c3ccc([N+](=O)[O-])cc3)cc2)cc1`: the Ki in assay [2] was 63.3 nM; in assay [3], 80.1 nM; in assay [4], 70.6 nM.
`NS(=O)(=O)c1ccc(-c2ccc(C(O)c3ccc([N+](=O)[O-])cc3)cc2)cc1` (stereo unspecified): the figures for the Ki in assay [1] and in assay [2] were 678 nM and 5.9 nM, respectively.
For `NS(=O)(=O)c1ccc(-c2ccc(Cc3ccc([N+](=O)[O-])cc3)cc2)cc1`, the Ki in assay [1] came to 705 nM; in assay [2] it was 39.7 nM; in assay [3] it was 70.5 nM; in assay [4], 9.3 nM.
`Nc1ccc(Cc2ccc(-c3ccc(S(N)(=O)=O)cc3)cc2)cc1`: the Ki in assay [1] amounted to 6 nM; in assay [2], 5.2 nM; in assay [3], 589 nM; in assay [4] it was 8.1 nM.
